*: point of attachment. Hexanoyl(6-maleimido) = O=C1C=CC(=O)N1CCCCCC(=O)*
Legend:
CWR22 tissue homogenate = assay: Cleavage study of the doxorubicin dipeptide with CWR22 tissue homogenate (HPLC); type: in vitro ADME; settings: pH 7.4, 37° C., anthracycline 100 μM, 5 minutes, 6 hours, 20 hours, FIG. 2
Procedure: FIG. 2 is chromatogram of a cleavage study of the doxorubicin-dipeptide Doxo-Arg-Ser with PSA-positive prostate carcinoma CWR22. Chromatogram of an incubation study of the cleaved doxorubicin-dipeptide [Doxo-Arg-Ser] with CWR22 homogenate recorded at 37° C. after 0 hours, 6 hours, and 20 hours. The concentration of anthracycline was […]. HPLC conditions: see FIG. 1. The CWR22 homogenate (250 mg/l mL) was produced by homogenization of CWR22 xenograft tumors in 50 mM tris-HCl buffer at pH 7.4 containing 1 mM monothioglycerol.
An incubation study at 37° C. with CWR22 tissue homogenate at pH 7.4 was conducted with the doxorubicin dipeptide (Doxo-Arg-Ser) obtained as described in Example 2. The concentration of anthracycline was 100 μM. HPLC chromatography was conducted under the conditions of Example 2 after 5 minutes, 6 hours, and 20 hours.

[1] = target: T1, cysteine-34 position of endogenous albumin (Homo sapiens, UniProt P02768); assay: Incubation study with human plasma (binding to albumin, HPLC); settings: 37° C., 100 μM, after 5 and 90 minutes, FIG. 4
T1 construct: cysteine-34 position of endogenous albumin in blood plasma; from tissue; host or cells: human blood plasma
Procedure: FIG. 4 is chromatogram of an incubation study of compound 3 with human plasma at 37° C. after 5 and 90 minutes. Chromatogram of an incubation study of compound 3 with human plasma at 37° C. after 5 and 90 minutes. The concentration of the anthracycline was 100 μM. HPLC chromatography conditions: see FIG. 3.

[2] = test system: PSA-positive xenograft model CWR22; assay: In-vivo activity in the PSA-positive xenograft model (CWR22); parameters: species or system hairless mice
Procedure: The course of the tumor growth of the subcutaneously growing PSA-positive xenograft model CWR22, which was treated with structure 3 [dose (i.v.): 2×13.3 μmol/kg (=2×8 mg/kg doxorubicin equivalents) on days 13 and 20; 3×39.9 μmol/kg (=3×24 mg/kg doxorubicin equivalents) on days 13, 20, and 27; and 3×59.9 μmol/kg (=3×36 mg/kg doxorubicin equivalents) on days 13, 20, and 27] is shown in FIG. 6.
Animals: hairless mice. Stock solution of compound 3:6.0 mg/mL in 10 mM sodium phosphate, 5% D-glucose (pH 6.4); control (buffer): glucose-phosphate buffer (10 mM sodium phosphate, 5% D-glucose—pH 6.4) on days 13 and 20.
The course of the tumor growth of the subcutaneously growing PSA-positive xenograft model CWR22, which was treated with structure 1 [dose (i.v.): 2×13.3 μmol/kg (=2×8 mg/kg doxorubicin equivalents) on days 13 and 20; 3×26.3 μmol/kg (=3×16 mg/kg doxorubicin equivalents) or with buffer (control) on days 13 and 20], is shown in FIG. 7.
Animals: hairless mice. Stock solution of compound 1:7.4 mg/mL in 10 mM sodium phosphate, 5% D-glucose (pH 6.4); control (buffer): glucose-phosphate buffer (10 mM sodium phosphate, 5% D-glucose—pH 6.4) on days 13 and 20.

| cleavage in tumor tissue homogenate (CWR22 tissue homogenate) | Substance | binding to albumin in blood plasma [1] | antitumoral effect (relative tumor volume) ([2]; i.v. 2×13.3 μmol/kg on days 13 and 20, 3×26.3 μmol/kg, subcutaneous CWR22, FIG. 7) | antitumoral effect (relative tumor volume) ([2]; i.v. 2×13.3, 3×39.9 and 3×59.9 μmol/kg on days 13, 20 (27), subcutaneous CWR22, FIG. 6) |
| --- | --- | --- | --- | --- |
| cleaved to doxorubicin in tumor tissue | Doxo-Arg-Ser | – | – | – |
| – | EMC-Arg-Arg-Ser-Ser-Tyr-Tyr-Ser-Gly-Doxo ({Hexanoyl(6-maleimido)}-RRSSYYSG-doxorubicin) [compound 3] | binds selectively within a few minutes | good antitumoral effect | good antitumoral effect |
